Values after ≈ are worked out from the molar mass of the structure shown.
Tests used:
[1] = Stability of SR13668 in Solutol (25° C. and 4° C.), HPLC/Fluorescence; type: physicochemical; settings: for stability: 25° C. and 4° C.; for SR13668 assay, stability of SR13668/Solutol aqueous solution: aqueous sample (theoretical 1.2000); for SR13668 assay, stability in Solutol: solid sample in Eppendorf tube
Experimental: A batch of 5 mg SR13668/g Solutol was made by stirring at 95° C. for 24 hrs. […] The sample was centrifuged while warm and no crystals were observed on the bottom of the tube. The sample was assayed from the top, middle and bottom of the centrifuge tube and there was no significant difference in the measurements. The SR13668 assay is an isocratic HPLC method with Fluorescence detection. The SR13668 concentration in Solutol was determined to be 5.00±0.09 mg/g (n=5).
Three types of samples from the above formulation (a. Solid Samples, b. Aqueous Solution and c. Solid stored and combined with water before assay) were stored at 25° C. (constant temperature bath) and 4° C. (refrigerator) and assayed weekly with the same HPLC/Fluorescence analytical method for 1-month.
Eppendorf tubes containing 1-mL samples of the above 5 mg SR13668/g Solutol solution were capped and stored under the two temperature conditions described above. At each time point the samples were melted and centrifuged at 95° C. No solids were ever observed in these samples.
In a 50-mL centrifuge tube, 12 g of the 5 mg SR13668/g Solutol melt was accurately weighed. The tube was tared and water, warmed to 70° C., was added to the 50 mL mark on the tube and weighed. The concentration of SR13668 in the aqueous solution was calculated based on the average SR13668/Solutol concentration of 5.00±0.09 mg/g, the weight of the Solutol and the total weight of solution in the tube. The tube was stored under the two temperature conditions described previously and the assayed amounts were compared with the theoretical. Observations were made on the tubes and there were no significant changes in the solutions and no solids were observed. The 25° C. tube did get a cloudy film layer, possibly biological growth. The layer dispersed after vigorous shaking. The 4° C. samples are cloudy, but clear up when warmed to room temperature. See results Table 8 and FIG. 5.
An accurately weighed 200 mg aliquot of the above 5 mg/g Solutol solution was stored at 25° C. and 4° C. At each time point, the solids were melted at 90° C. and 800 mg of accurately weighed 90° C. water was added. The samples were mixed and observations made. In all cases no solids were observed. A sample aliquot of the above aqueous solution was analyzed by HPLC/Fluorescence and the results compared with theoretical. See results Table 9 and FIG. 6. The analytical method is validated ±5% from theoretical. The majority of the samples fell within this limit.

[2] = Solubility of SR13668 in various solvents; type: physicochemical; settings: for solubility: thermodynamic from solid
From the text: The other three systems are similar to the Solutol solutions, but the Solutol is the best candidate having the lowest freezing point (see Table 10) and a high SR13668 solubility (see Table 11). […] Vit E TPGS is water soluble natural-source vitamin E d-alpha tocopheryl polyethyleneglycol succinate, 387 IU/g. Myrj is Polyethylene Glycol (50) Monostearate.

[3] = stored as solid, prepared as aqueous solution, 4° C. storage, 0
[4] = stored as solid, prepared as aqueous solution, 4° C. storage, Day
[5] = stored as solid, prepared as aqueous solution, 4° C. storage, Day 7
[6] = stored as solid, prepared as aqueous solution, 4° C. storage, Day 14
[7] = stored as solid, prepared as aqueous solution, 4° C. storage, Day 21
[8] = stored as solid, prepared as aqueous solution, 4° C. storage, Day 28
[9] = stored as solid, prepared as aqueous solution, 25° C. storage, 0
[10] = stored as solid, prepared as aqueous solution, 25° C. storage, Day
[11] = stored as solid, prepared as aqueous solution, 25° C. storage, Day 7
[12] = stored as solid, prepared as aqueous solution, 25° C. storage, Day 14
[13] = stored as solid, prepared as aqueous solution, 25° C. storage, Day 21
[14] = stored as solid, prepared as aqueous solution, 25° C. storage, Day 28

## CCOC(=O)c1ccc2[nH]c3c(OC)c4[nH]c5ccc(C(=O)OCC)cc5c4cc3c2c1 [SR13668, 2,10-dicarbethoxy-6-methoxy-5,7-dihydro-indolo-(2,3-b)carbazole]
[1]; 5 mg SR13668/g Solutol, solid samples
  stability: stable within the error of the assay and no degradation was observed
[1]; SR13668/Solutol aqueous solution
  stability: stable within error and no drug degradation was observed
[1]; 4° C. storage, Day
  SR13668 assay, stability of SR13668/Solutol aqueous solution: 1.1384 mg SR13668/g Solutol
  SR13668 assay, stability in Solutol: 5.05 mg SR13668/g Solutol
[1]; 4° C. storage, Day 7
  SR13668 assay, stability of SR13668/Solutol aqueous solution: 1.1758 mg SR13668/g Solutol
  SR13668 assay, stability in Solutol: 4.97 mg SR13668/g Solutol
[1]; 4° C. storage, Day 14
  SR13668 assay, stability of SR13668/Solutol aqueous solution: 1.1981 mg SR13668/g Solutol
  SR13668 assay, stability in Solutol: 5.33 mg SR13668/g Solutol
[1]; 4° C. storage, Day 21
  SR13668 assay, stability of SR13668/Solutol aqueous solution: 1.2509 mg SR13668/g Solutol
  SR13668 assay, stability in Solutol: 5.06 mg SR13668/g Solutol
[1]; 4° C. storage, Day 28
  SR13668 assay, stability of SR13668/Solutol aqueous solution: 1.1985 mg SR13668/g Solutol
  SR13668 assay, stability in Solutol: 4.97 mg SR13668/g Solutol
[1]; 4° C. storage, Day 35
  SR13668 assay, stability of SR13668/Solutol aqueous solution: 1.1814 mg SR13668/g Solutol
  SR13668 assay, stability in Solutol: 4.87 mg SR13668/g Solutol
[1]; 25° C. storage, Day
  SR13668 assay, stability of SR13668/Solutol aqueous solution: 1.5040 mg SR13668/g Solutol
  SR13668 assay, stability in Solutol: 4.93 mg SR13668/g Solutol
[1]; 25° C. storage, Day 7
  SR13668 assay, stability of SR13668/Solutol aqueous solution: 1.1311 mg SR13668/g Solutol
  SR13668 assay, stability in Solutol: 5.10 mg SR13668/g Solutol
[1]; 25° C. storage, Day 14
  SR13668 assay, stability of SR13668/Solutol aqueous solution: 1.2256 mg SR13668/g Solutol
  SR13668 assay, stability in Solutol: 5.19 mg SR13668/g Solutol
[1]; 25° C. storage, Day 21
  SR13668 assay, stability of SR13668/Solutol aqueous solution: 1.2663 mg SR13668/g Solutol
  SR13668 assay, stability in Solutol: 5.14 mg SR13668/g Solutol
[1]; 25° C. storage, Day 28
  SR13668 assay, stability of SR13668/Solutol aqueous solution: 1.2116 mg SR13668/g Solutol
  SR13668 assay, stability in Solutol: 5.00 mg SR13668/g Solutol
[1]; 25° C. storage, Day 35
  SR13668 assay, stability of SR13668/Solutol aqueous solution: 1.1942 mg SR13668/g Solutol
  SR13668 assay, stability in Solutol: 4.93 mg SR13668/g Solutol
[1]; 4° C. storage, 0 (t = 0 melt samples)
  SR13668 assay, stability in Solutol: 5.00 mg SR13668/g Solutol
[1]; 25° C. storage, 0 (t = 0 melt samples)
  SR13668 assay, stability in Solutol: 5.00 mg SR13668/g Solutol
[1]; stored as solid, prepared as aqueous solution
  stability: no trends or indications that the samples are unstable
[1]; [3]
  % difference from Theory: −6.71%
  Measured mg SR13668/g Solutol: 0.9238 mg SR13668/g Solutol
[1]; [4]
  % difference from Theory: −7.00%
  Measured mg SR13668/g Solutol: 0.8804 mg SR13668/g Solutol
[1]; [5]
  % difference from Theory: 0.78%
  Measured mg SR13668/g Solutol: 0.9866 mg SR13668/g Solutol
[1]; [6]
  % difference from Theory: 2.91%
  Measured mg SR13668/g Solutol: 1.0608 mg SR13668/g Solutol
[1]; [7]
  % difference from Theory: −2.29%
  Measured mg SR13668/g Solutol: 0.9809 mg SR13668/g Solutol
[1]; [8]
  % difference from Theory: −4.87%
  Measured mg SR13668/g Solutol: 0.9160 mg SR13668/g Solutol
[1]; [9]
  % difference from Theory: −11.50%
  Measured mg SR13668/g Solutol: 0.8630 mg SR13668/g Solutol
[1]; [10]
  % difference from Theory: −6.56%
  Measured mg SR13668/g Solutol: 0.9955 mg SR13668/g Solutol
[1]; [11]
  % difference from Theory: 3.38%
  Measured mg SR13668/g Solutol: 1.0308 mg SR13668/g Solutol
[1]; [12]
  % difference from Theory: 3.40%
  Measured mg SR13668/g Solutol: 0.9609 mg SR13668/g Solutol
[1]; [13]
  % difference from Theory: −5.45%
  Measured mg SR13668/g Solutol: 0.9374 mg SR13668/g Solutol
[1]; [14]
  % difference from Theory: −4.84%
  Measured mg SR13668/g Solutol: 0.9372 mg SR13668/g Solutol
[2]
  aqueous solubility: extremely low
[2]; 65 °C, aqueous with cosolvent or surfactant or cyclodextrin, Solutol, 65-70 ° C., HPLC
  solubility: 7000 µg/mL (≈ 16300 µM)
[2]; 65 °C, aqueous with cosolvent or surfactant or cyclodextrin, Vitamin E TPGS, 65-70 ° C., UV
  solubility: 5500 µg/mL (≈ 12800 µM)
[2]; 65 °C, organic solvent or mixture, Gelucire 44/14, 65-70 ° C., UV
  solubility: 4260 µg/mL (≈ 9900 µM)
[2]; 65 °C, organic solvent or mixture, Gelucire 50/13, 65-70 ° C., UV
  solubility: 4150 µg/mL (≈ 9640 µM)
[2]; 65 °C, organic solvent or mixture, Myrj 52, 65-70 ° C., UV
  solubility: 6700 µg/mL (≈ 15600 µM)
[2]; 65 °C, organic solvent or mixture, Myrj 53, 65-70 ° C., UV
  solubility: 6800 µg/mL (≈ 15800 µM)
[2]; 65 °C, organic solvent or mixture, PEG-400, 65-70 ° C., UV
  solubility: 9000 µg/mL (≈ 20900 µM)
[2]; 65 °C, organic solvent or mixture, PEG-400 New, 65-70 ° C., UV
  solubility: 7600 µg/mL (≈ 17700 µM)
[2]; 65 °C, organic solvent or mixture, PEG-1000, 65-70 ° C., UV
  solubility: 8150 µg/mL (≈ 18900 µM)
[2]; 65 °C, organic solvent or mixture, PEG-2000, 65-70 ° C., UV
  solubility: 8800 µg/mL (≈ 20400 µM)
[2]; fassgf or other biorelevant, Simulated Intestinal Fluid, RT, HPLC
  solubility: 0.0075 µg/mL (≈ 0.0174 µM)
[2]; oil or lipid, Corn Oil, RT, HPLC
  solubility: 108 µg/mL (≈ 251 µM)
[2]; oil or lipid, Safflower Oil, RT, HPLC
  solubility: 77 µg/mL (≈ 179 µM)
[2]; oil or lipid, Sesame Oil, RT, HPLC
  solubility: 47 µg/mL (≈ 109 µM)
[2]; oil or lipid, Soybean Oil, RT, HPLC
  solubility: 55 µg/mL (≈ 128 µM)
[2]; oil or lipid, Sunflower Oil, RT, HPLC
  solubility: 66 µg/mL (≈ 153 µM)
[2]; organic solvent or mixture, 1-octanol, RT, HPLC
  solubility: 123 µg/mL (≈ 286 µM)
[2]; organic solvent or mixture, Absolute Ethanol, RT, HPLC
  solubility: 75 µg/mL (≈ 174 µM)
[2]; organic solvent or mixture, Acetone, RT, HPLC
  solubility: 950 µg/mL (≈ 2210 µM)
[2]; organic solvent or mixture, Acetonitrile, RT, HPLC
  solubility: 84.9 µg/mL (≈ 197 µM)
[2]; organic solvent or mixture, Chemophore EL, RT, HPLC
  solubility: 264 µg/mL (≈ 613 µM)
[2]; organic solvent or mixture, DMSO, RT, UV
  solubility: 106000 µg/mL (≈ 246000 µM)
[2]; organic solvent or mixture, Ethanol, RT, UV
  solubility: 148 µg/mL (≈ 344 µM)
[2]; organic solvent or mixture, Ethyl Acetate, RT, HPLC
  solubility: 230 µg/mL (≈ 534 µM)
[2]; organic solvent or mixture, Glycerin, RT, HPLC
  solubility: 47 µg/mL (≈ 109 µM)
[2]; organic solvent or mixture, Labrasol, RT, UV
  solubility: 380 µg/mL (≈ 883 µM)
[2]; organic solvent or mixture, Methanol, RT, UV
  solubility: 86.3 µg/mL (≈ 200 µM)
[2]; organic solvent or mixture, Methylene Chloride, RT, HPLC
  solubility: 62 µg/mL (≈ 144 µM)
[2]; organic solvent or mixture, PEG-400, RT, UV
  solubility: 880 µg/mL (≈ 2040 µM)
[2]; organic solvent or mixture, PEG-400 New, RT, UV
  solubility: 1370 µg/mL (≈ 3180 µM)
[2]; organic solvent or mixture, Pluronic F-127, 120 ° C., HPLC
  solubility: 9480 µg/mL (≈ 22000 µM)
[2]; organic solvent or mixture, Propylene Glycol, RT, HPLC
  solubility: 84 µg/mL (≈ 195 µM)
[2]; Simulated Gastric Fluid, RT, HPLC
  solubility: 0.014 µg/mL (≈ 0.0325 µM)
[2]; Water, RT, HPLC
  solubility: 0.01 µg/mL (≈ 0.0232 µM)

Reference: patent US20120184590A1, “FORMULATIONS OF INDOLE-3-CARBINOL DERIVED ANTITUMOR AGENTS WITH INCREASED ORAL BIOAVAILABILITY” (UNIVERSITY OF KANSAS, priority 2009, published 2012)
